Assay results from patent US7759334B2, “Soluble forms of amoxicillin and treatment of animals” (Pharmaceutical Solutions, Inc., priority 1999, dated 2010).

Legend:
STREP Suis Type 2 = test: Treatment of streptococcus Suis in nursery pigs; format: in vivo; conditions: 300 pigs, 3 mg/lb for 7 days from 35 days of age
Experimental: Treatment of streptococcus Suis—a group of 600 pigs was divided into 2 groups of 300. Each group was side by side in a 600 animal nursery room. Group 1 (300) was treated with 3 mg/lb of amoxicillin at 35 days of age for a period of 7 days. Group 2 (300) was treated with a placebo—citric acid/nutrisweet/strawberry flavor at 35 days of age for a period of 7 days. […] Death loss ranged from 3 to 10 percent with poor treatment results.

Hermophilus Pawasuis = test: Treatment for Hermophilus Pawasuis in finishing gilts; format: in vivo; conditions: 500 gilts, 3 mg/# via water
Source text: Treatment for Hermophilus Pawasuis in finishing Gilts—wt. 250#. • Marked Reduction in death loss following 5 day coarse of therapy.

[1] = cited from earlier work
Enterococci = conditions: cited from earlier work

CC1(C)S[C@@H]2[C@H](NC(=O)[C@H](N)c3ccc(O)cc3)C(=O)N2[C@H]1C(=O)O [amoxicillin]
Chronic cells @ 50 (STREP Suis Type 2): 1
Morbidity Number (STREP Suis Type 2): 2
Mortality Number (STREP Suis Type 2): 0
Morbidity 8-142 (Hermophilus Pawasuis): 0
Mortality In 14 days (Hermophilus Pawasuis): 0
Mortality result in 7 days (Hermophilus Pawasuis): 0
Morbidity 0-7 (Hermophilus Pawasuis; days 0-7): 2
Peak plasma concentration relative to ampicillin ([1]; oral administration of the same doses): two to two and one-half times greater
Time at which peak plasma concentrations are reached ([1]; oral administration): 2 h
Peak concentration in plasma (average) ([1]; oral, 250 mg administered): about 4 μg/ml

CC1(C)S[C@@H]2[C@H](NC(=O)[C@H](N)c3ccccc3)C(=O)N2[C@H]1C(=O)O [ampicillin]
IVIIC for ampicillin averages (Enterococci): 1.5 mg/mL
